Laboratory results as given in patent US10065990B2, “Cyclic peptide compound, and preparation method, pharmaceutical composition and use thereof” (HANGZHOU GUANYU BIO-MEDICAL CO., LTD, priority 2013, dated 2018).
Read-outs that look alike come from different tables or passages of the source.

Legend:
[1] = test system: MCF-7 (human breast cancer cells); assay: MTT cancer cell growth inhibition; type: cell-based; details: 72 hours incubation, read-out: GI50 MCF
Source text: (§1) MTT assay principle is yellow MTT can penetrate membrane into the cell, succinic dehydrogenase of the mitochondria in living cells can make exogenous MTT reduction of insoluble in water of blue-violet acicular formazan for crystallization and deposition in the cell, crystallization can be dissolved dimethyl sulfoxide (DMSO) solution, detected its absorbance at 490 nm/570 nm wavelength by enzyme-linked immunosorbent assay, which can reflect the number of cells.
(§2) Using DMEM+10% FBS culture medium or using 1640+10% FBS culture, respectively.
(§3) a) Cells were seeded in 96-well plates with the inoculation of 1500/well, 190 μl/hole, 37° C., 5% of CO2 incubator overnight;
(§4) b) The next day each well was added 10 μl of different drugs. The final concentration of drug was 10^−5˜10^−10M, three parallel holes; 37° C., 5% CO2 culture incubator for 72 hours incubation;
(§5) c) Per well was added 20 μl 5 mg/ml of MTT, 37° C., 5% CO2 culture incubator for 4 hours incubation;
(§6) d) The supernatant was discarded. Each well was added 100 μl of DMSO and oscillation;
(§7) e) 570 nm readings. Calculate cell viability. GI50 calculation based on the results.

[2] = test system: lncap (prostate cancer cells); assay: MTT cancer cell growth inhibition; type: cell-based; details: MTT, 72 hours incubation, read-out: GI50 lnca
Source text: as §1, §2, §3, §4, §5, §6, §7

[3] = test system: PANC-1 (Pac-1, human pancreatic cancer cells); assay: MTT cancer cell growth inhibition; type: cell-based; details: MTT, 72 hours incubation, read-out: GI50 PAN
Source text: as §1, §2, §3, §4, §5, §6, §7

[4] = test system: K562 (human leukemia cells); assay: MTT cancer cell growth inhibition; type: cell-based; details: MTT, 72 hours incubation, K562 cells, read-out: GI50 K562
Source text: as §1, §2, §3, §4, §5, §6, §7

[5] = test system: HCC827 (human non-small cell lung cancer cells); assay: MTT cancer cell growth inhibition; type: cell-based; details: MTT, 72 hours incubation, HCC827 cells, read-out: GI50 HCC827
Source text: as §1, §2, §3, §4, §5, §6, §7

[6] = test system: SGC-7901 (human gastric cancer cells); assay: MTT cancer cell growth inhibition; type: cell-based; details: MTT, 72 hours incubation, SGC-7901 cells, read-out: GI50 SGC-7901
Source text: as §1, §2, §3, §4, §5, §6, §7

[7] = test system: Bel-7402 (human hepatoma cells); assay: MTT cancer cell growth inhibition; type: cell-based; details: MTT, 72 hours incubation, Bel-7402 cells, read-out: GI50 Bel-7402
Source text: as §1, §2, §3, §4, §5, §6, §7

[8] = test system: A549 (human lung cancer cells); assay: MTT cancer cell growth inhibition; type: cell-based; details: MTT, 72 hours incubation, read-out: GI50 A54
Source text: as §1, §2, §3, §4, §5, §6, §7

[9] = test system: MDA-MB-231 (breast cancer cells); assay: MTT cancer cell growth inhibition; type: cell-based
Source text: as §1, §2, §3, §4, §5, §6, §7

[10] = test system: DU145 (human prostate cancer cells); assay: MTT cancer cell growth inhibition; type: cell-based; details: MTT, 72 hours incubation, read-out: GI50 Du1
Source text: as §1, §2, §3, §4, §5, §6, §7

[11] = test system: Huh-7 (human hepatoma cells); assay: MTT cancer cell growth inhibition; type: cell-based; details: MTT, 72 hours incubation, Huh-7 cells, read-out: GI50 Huh-7
Source text: as §1, §2, §3, §4, §5, §6, §7

[12] = test system: Hela (human cervical cancer cells); assay: MTT cancer cell growth inhibition; type: cell-based; details: MTT, 72 hours incubation, read-out: GI50 Hela
Source text: as §1, §2, §3, §4, §5, §6, §7

[13] = test system: H1975 (non-small cell lung adenocarcinoma); assay: MTT cancer cell growth inhibition; type: cell-based; details: MTT, 72 hours incubation, H1975 cells, read-out: GI50 H1975
Source text: as §1, §2, §3, §4, §5, §6, §7

[14] = test system: KBM5-T315I (human chronic myelogenous leukemia); assay: MTT cancer cell growth inhibition; type: cell-based; details: MTT, 72 hours incubation, KBM5-T315I cells, read-out: GI50 KBM5-T315I
Source text: as §1, §2, §3, §4, §5, §6, §7

[15] = test system: U937 (human leukemia cells); assay: MTT cancer cell growth inhibition; type: cell-based; details: MTT, 72 hours incubation, read-out: GI50 U93
Source text: as §1, §2, §3, §4, §5, §6, §7

[16] = test system: BGC-823 (human gastric cancer cells); assay: MTT cancer cell growth inhibition; type: cell-based; details: MTT, 72 hours incubation, read-out: GI50 BG
Source text: as §1, §2, §3, §4, §5, §6, §7

[17] = test system: KBM-5 (human chronic myelogenous leukemia); assay: MTT cancer cell growth inhibition; type: cell-based; details: MTT, 72 hours incubation, KBM-5 cells, read-out: GI50 KBM-5
Source text: as §1, §2, §3, §4, §5, §6, §7

[18] = test system: MOLT-4 (human acute lymphoblastic leukemia cells); assay: MTT cancer cell growth inhibition; type: cell-based; details: MTT, 72 hours incubation, read-out: GI50 Mol
Source text: as §1, §2, §3, §4, §5, §6, §7

[19] = test system: HT1080 (human fibrosarcoma cells); assay: MTT cancer cell growth inhibition; type: cell-based; details: MTT, 72 hours incubation, read-out: GI50 HT1
Source text: as §1, §2, §3, §4, §5, §6, §7

HDAC7 = target: T1, HDAC7 (Homo sapiens, UniProt Q8WUI4); assay: HDAC biochemical activity measurement (fluorescent substrate deacetylation);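 further: fluorogenic deacetylation assay using acetyl-lysine substrate at 20 µM, enzyme and compound incubated 30 min at 37 °C, then developer added, fluorescence read at 360/460 nm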; details: HDAC7; 37° C. 30 minutes
T1 sequence (Q8WUI4 1-952): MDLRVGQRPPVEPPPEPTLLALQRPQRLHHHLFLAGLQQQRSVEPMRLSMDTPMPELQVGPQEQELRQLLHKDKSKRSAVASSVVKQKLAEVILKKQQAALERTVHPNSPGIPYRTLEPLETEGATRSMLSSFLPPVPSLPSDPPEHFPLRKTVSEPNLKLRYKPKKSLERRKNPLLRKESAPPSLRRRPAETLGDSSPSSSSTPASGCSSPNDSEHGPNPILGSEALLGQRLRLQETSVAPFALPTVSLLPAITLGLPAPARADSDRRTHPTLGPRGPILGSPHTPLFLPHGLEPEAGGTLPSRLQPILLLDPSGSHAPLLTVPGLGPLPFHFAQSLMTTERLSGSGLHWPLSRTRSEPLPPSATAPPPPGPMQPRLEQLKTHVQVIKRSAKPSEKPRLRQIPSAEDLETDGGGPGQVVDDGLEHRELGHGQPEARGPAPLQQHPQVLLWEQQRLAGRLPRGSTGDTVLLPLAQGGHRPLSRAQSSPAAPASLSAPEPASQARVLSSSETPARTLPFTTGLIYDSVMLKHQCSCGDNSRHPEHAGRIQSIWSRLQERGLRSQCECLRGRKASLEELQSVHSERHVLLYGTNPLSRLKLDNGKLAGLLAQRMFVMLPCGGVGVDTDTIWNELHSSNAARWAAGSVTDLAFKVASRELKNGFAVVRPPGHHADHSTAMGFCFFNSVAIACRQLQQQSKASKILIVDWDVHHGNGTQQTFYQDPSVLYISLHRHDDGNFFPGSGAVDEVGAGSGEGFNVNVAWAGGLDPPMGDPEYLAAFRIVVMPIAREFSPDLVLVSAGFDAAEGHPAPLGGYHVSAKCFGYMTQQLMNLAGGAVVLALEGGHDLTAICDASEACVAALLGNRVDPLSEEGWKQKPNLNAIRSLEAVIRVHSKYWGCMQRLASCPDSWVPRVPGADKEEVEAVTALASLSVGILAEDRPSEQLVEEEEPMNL
Protocol: The chemical activity of the compound is determined according to the degree of deacetylation inhibition of the HDAC enzyme. This experiment measured the degree of deacetylation related to tumor proliferation and metastasis of HDAC1, HDAC2, HDAC3, HDAC8, HDAC11 five subtypes HDAC enzymes. After the substrate containing an acetylated lysine side chain and HDAC enzyme are labeled with a fluorescent label, the fluorescent substrate is de acetyl. The fluorescent labeled substrate is cleaved by the enzyme, and the fluorescent substance is released, which generates 460 nm emission light under the excitation of 360 nm light.
HDAC substrate was diluted with reaction buffer to 200M (reaction concentration of 20M), the HDAC enzyme was diluted to the appropriate concentration, then added different concentrations of the test compounds and acted at 37° C. 30 minutes, and then added the same volume of 2-times concentration substrate developing solution (developer), incubated at room temperature for 15 minutes. Finally, the last reading measured with a microplate plate reader, excitation light was 360 nm, the emitted light was 460 nm, data processing software was Prime 4, and the results are shown in Table 1.

[20] = test system: N-87 (human gastric cancer cells); assay: MTT cancer cell growth inhibition; type: cell-based; details: MTT, 72 hours incubation, N-87 cells, read-out: GI50 N-87
Source text: as §1, §2, §3, §4, §5, §6, §7

[21] = Homo sapiens, MDA-MB-231, 72 h, read-out: GI50 MDA-MB-231, MTT, 72 hours incubation, MDA-MB-231 cells

| Compound | GI50 [1] | GI50 [2] | GI50 [3] | GI50 ([4]; Homo sapiens, K562, 72 h) | GI50 ([5]; Homo sapiens, HCC827, 72 h) | GI50 ([6]; Homo sapiens, SGC-7901, 72 h) | GI50 ([7]; Homo sapiens, Bel-7402, 72 h) | GI50 [8] | GI50 [9, 21] | GI50 [10] | GI50 ([11]; Homo sapiens, Huh-7, 72 h) | GI50 [12] | GI50 ([13]; Homo sapiens, NCI-H1975, 72 h) | GI50 ([14]; Homo sapiens, 72 h) | GI50 [15] | GI50 [16] | GI50 ([17]; Homo sapiens, KBM5, 72 h) | GI50 [18] | GI50 [19] | IC50 HDAC7 (HDAC7) | other results |
| --- | --- | --- | --- | --- | --- | --- | --- | --- | --- | --- | --- | --- | --- | --- | --- | --- | --- | --- | --- | --- | --- |
| C/C=C1\NC(=O)c2nc(ccc2F)CNC(=O)C[C@@H](/C=C/CCSC(C)=O)OC(=O)[C@H](C(C)C)NC1=O [Compound 93] | 0.03 µM | 0.03 µM | 0.03 µM | 0.037 µM | 0.034 µM | 0.068 µM | 0.034 µM | 0.06 µM | 0.038 µM | 0.03 µM | 0.038 µM | 0.05 µM | 0.027 µM | 0.034 µM | 0.02 µM | 0.02 µM | 0.053 µM | 0.03 µM | 0.03 µM | no activity | – |
| C/C=C1\NC(=O)c2cc(F)cc(n2)CNC(=O)C[C@@H](/C=C/CCS)OC(=O)[C@H](CC)NC1=O [Compound 110] | – | – | – | 0.017 µM | 0.062 µM | 0.057 µM | 0.062 µM | – | 0.013 µM | – | 0.048 µM | – | 0.059 µM | 0.029 µM | – | – | 0.041 µM | – | – | no activity | GI50 ([1]; Homo sapiens, MCF7, 72 h): 0.03 µM; GI50 ([2]; Homo sapiens, LNCaP, 72 h): 0.03 µM; GI50 ([8]; Homo sapiens, A549, 72 h): 0.06 µM; GI50 ([10]; Homo sapiens, DU-145, 72 h): 0.05 µM; GI50 ([12]; Homo sapiens, HeLa, 72 h): 0.06 µM; GI50 ([20]; Homo sapiens, 72 h): 0.035 µM; GI50 ([15]; Homo sapiens, U-937, 72 h): 0.06 µM; GI50 ([16]; Homo sapiens, BGC-823, 72 h): 0.03 µM; GI50 ([18]; Homo sapiens, MOLT-4, 72 h): 0.03 µM; GI50 ([19]; Homo sapiens, HT-1080, 72 h): 0.07 µM |
| C/C=C1\NC(=O)c2ccc(F)c(n2)CNC(=O)C[C@@H](/C=C/CCSC(C)=O)OC(=O)[C@H](C(C)C)NC1=O [Compound 95] | – | – | – | 0.026 µM | 0.083 µM | 0.042 µM | 0.083 µM | – | 0.022 µM | – | 0.022 µM | – | 0.035 µM | 0.038 µM | – | 0.02 µM | 0.076 µM | – | – | no activity | GI50 ([1]; Homo sapiens, MCF7, 72 h): 0.03 µM; GI50 ([2]; Homo sapiens, LNCaP, 72 h): 0.02 µM; GI50 ([3]; Homo sapiens, PANC-1, 72 h): 0.08 µM; GI50 ([8]; Homo sapiens, A549, 72 h): 0.04 µM; GI50 ([10]; Homo sapiens, DU-145, 72 h): 0.02 µM; GI50 ([12]; Homo sapiens, HeLa, 72 h): 0.07 µM; GI50 ([15]; Homo sapiens, U-937, 72 h): 0.03 µM; GI50 ([18]; Homo sapiens, MOLT-4, 72 h): 0.02 µM; GI50 ([19]; Homo sapiens, HT-1080, 72 h): 0.08 µM |
| C/C=C1\NC(=O)c2ccc(F)c(n2)CNC(=O)C[C@@H](/C=C/CCSC(C)=O)OC(=O)[C@H](C(C)C)NC1=O (single isomer, unassigned) [Example 50] | 0.06 µM | 0.02 µM | 0.08 µM | – | – | – | – | 0.03 µM | – | 0.04 µM | – | 0.07 µM | – | – | 0.03 µM | 0.06 µM | – | 0.02 µM | 0.08 µM | no activity | – |
| C/C=C1\NC(=O)c2nc(ccc2F)CNC(=O)C[C@@H](/C=C/CCSC(C)=O)OC(=O)[C@H](CC)NC1=O [Example 57] | – | – | – | – | – | – | – | – | – | – | – | – | – | – | – | – | – | – | – | – | GI50 [4]: 0.035 µM; GI50 [5]: 0.073 µM; GI50 [6]: 0.092 µM; GI50 [7]: 0.073 µM; GI50 ([9]; read-out: GI50 MDA-MB-231, MTT, 72 hours incubation, MDA-MB-231 cells): 0.028 µM; GI50 [11]: 0.028 µM; GI50 [13]: 0.055 µM; GI50 [14]: 0.054 µM; GI50 [20]: 0.053 µM; GI50 [17]: 0.074 µM |
